Measurements: patent publication US8710095B2, “Drugs for prophylaxis or mitigation of taxane-induced neurotoxicity” (Bionumerik Pharmaceuticals, Inc., priority 2002, dated 2014)

Tests used:
[1] = test system: patients in the Phase I studies (US & Japan); assay: US & Japan Phase I studies overall, incidence of neurotoxicity; format: in vivo, human
Method: Human clinical trials have been conducted in the United States, Europe and Japan regarding the safety and efficacy of the agents that make up this invention. These trials are ongoing. The following is a summary of the results obtained from early-stage (Phase 1) trials in the United States and Japan.
(§1) The number and percentage of patients who reported neurotoxicity in the Phase I studies compared with historical control data are summarized on the next page. Severity grades were measured according to NCI-CTC standards.
Overall, peripheral neuropathy, such as numbness, paresthesia or tingling, was reported in 54.5% of patients (30 patients, all severities) in the Phase I studies. The majority of neurotoxicity events experienced was mild in severity where 38.2% of patients (21 patients) reported Grade 1 neurotoxicity.

[2] = test system: patients with advanced Non-Small Cell Lung Cancer (NSCLC); assay: Phase I study in Japan: 2,2′-dithiobis ethane sulfonate with paclitaxel and cisplatin, incidence of neurotoxicity; format: in vivo, human; conditions: Japan (NSCLC) (n = 19), all doses 4.1 to 41.0 g/m^2
Method: In the Phase I study in Japan, patients received the following treatment regimen every 3 weeks: a single dose of paclitaxel (175 mg/m^2) administered intravenously over 3 hours, pre-cisplatin saline hydration for 1 hour, immediately followed by a single dose of 2,2′-dithiobis ethane sulfonate (4.1, 8.2, 12.3, 18.4, 27.6 and 41.0 g/m^2, depending on cohort assignment) administered intravenously over 30 minutes, a single dose of cisplatin (75 mg/m^2) administered intravenously over 1 hour and subsequently post-cisplatin saline hydration for 1.5 hours.
A total of 19 patients with advanced Non-Small Cell Lung Cancer (NSCLC) have been enrolled and treated in this study at four clinical sites in Japan. Each patient was to receive a total of three treatment cycles during this study. A total of 43 treatment courses of 2,2′-dithiobis ethane sulfonate with chemotherapy were given to 19 patients giving an average of 2.3 treatment cycles per patient. A total of 11 patients (57.9%) completed all three treatment cycles while 8 patients (42.1%) discontinued therapy prior to completing the three treatment cycles.
as §1

[3] = test system: female Wistar rats; assay: Paclitaxel-induced abnormal thermoesthesia, latent period for pseudo pain reactions (hot water bath 45° C.); format: in vivo, rat
Method: Paclitaxel was intravenously administered at a dose of 6 mg/kg once daily to female Wistar rats (8 rats per group) (the initial dosage date was defined as day 0). Treatment was repeated five times every other day.
The efficacy of 2,2′-dithiobis ethane sulfonate on the abnormal thermoesthesia occurring in response to the paclitaxel therapy was assessed using, as an index, a latent period for pseudo pain reactions. […] Each pseudo pain reaction-related latent period was measured on the day before the initial paclitaxel dosage (day −1, pretreatment), and daily for three days from the next day after the final paclitaxel dosage (from days 9 to 11, post-treatment), i.e., totally four times.
2,2′-dithiobis ethane sulfonate was, dissolved in water for injection to make its concentration 200 mg/ml upon use and the 2,2′-dithiobis ethane sulfonate solution thus prepared was intravenously administered at the dose of 500 mg/kg or 1,000 mg/kg immediately before the paclitaxel administration.

[4] = Overall (US & Japan) (n = 55), all doses 4.1 to 41.0 g/m^2, with paclitaxel and cisplatin
[5] = Phase I studies US & Japan, with paclitaxel and cisplatin

SMILES: O=S(=O)([O-])CCSSCCS(=O)(=O)[O-].[Na+].[Na+] [2,2′-dithiobis ethane sulfonate]
- Incidence of neurotoxicity, Neurotoxicity Grade (NCI-CTC) 1 [1, 4]: 21 (38.2) Number (%) of Patients
- Incidence of neurotoxicity, Neurotoxicity Grade (NCI-CTC) 2 [1, 4]: 9 (16.4) Number (%) of Patients
- Incidence of neurotoxicity, Neurotoxicity Grade (NCI-CTC) 3 [1, 4]: 0 (0.0) Number (%) of Patients
- Incidence of neurotoxicity, Neurotoxicity Grade (NCI-CTC) 4 [1, 4]: 0 (0.0) Number (%) of Patients
- Incidence of neurotoxicity, Neurotoxicity Grade (NCI-CTC) ≧2 [1, 4]: 9 (16.4) Number (%) of Patients
- Incidence of neurotoxicity, Overall (all grades) [1, 4]: 30 (54.5) Number (%) of Patients
- incidence of moderate to severe (≧Grade 2) neurotoxicity [1, 5]: 16.4%
- overall incidence of neurotoxicity (peripheral neuropathy, all severities), patients [1, 5]: 54.5%
- patients who reported Grade 1 neurotoxicity [1, 5]: 38.2%
- patients who reported Grade 2 peripheral neuropathy [1, 5]: 16.4%
- Grade 3 or 4 neurotoxicity ([1]; Phase I studies, including patients who received up to 9 cycles of chemotherapy): No patient experienced Grade 3 or 4 neurotoxicity
- peripheral neuropathy as dose limiting toxicity ([1]; administered concurrently with paclitaxel and cisplatin chemotherapy): not a dose limiting toxicity
- effect on incidence of neurotoxicity versus historical control ([1]; concurrent administration with cisplatin and paclitaxel chemotherapy): decreases the incidence of neurotoxicity
- Incidence of neurotoxicity, Neurotoxicity Grade (NCI-CTC) 1 [2]: 13 (68.4) Number (%) of Patients
- Incidence of neurotoxicity, Neurotoxicity Grade (NCI-CTC) 2 [2]: 1 (5.2) Number (%) of Patients
- Incidence of neurotoxicity, Neurotoxicity Grade (NCI-CTC) 3 [2]: 0 (0.0) Number (%) of Patients
- Incidence of neurotoxicity, Neurotoxicity Grade (NCI-CTC) 4 [2]: 0 (0.0) Number (%) of Patients
- Incidence of neurotoxicity, Neurotoxicity Grade (NCI-CTC) ≧2 [2]: 1 (5.2) Number (%) of Patients
- Incidence of neurotoxicity, Overall (all grades) [2]: 14 (73.6) Number (%) of Patients
- Inhibition Rate (of latent period elongation) ([3]; 500 mg/kg iv with paclitaxel 6 mg/kg, Day 9): (17.8) %
- Inhibition Rate (of latent period elongation) ([3]; 500 mg/kg iv with paclitaxel 6 mg/kg, Day 10): (18.0) %
- Inhibition Rate (of latent period elongation) ([3]; 500 mg/kg iv with paclitaxel 6 mg/kg, Day 11): (19.4) %
- Inhibition Rate (of latent period elongation) ([3]; 1,000 mg/kg iv with paclitaxel 6 mg/kg, Day 9): (43.3) %
- Inhibition Rate (of latent period elongation) ([3]; 1,000 mg/kg iv with paclitaxel 6 mg/kg, Day 10): (38.0) %
- Inhibition Rate (of latent period elongation) ([3]; 1,000 mg/kg iv with paclitaxel 6 mg/kg, Day 11): (51.0) %
- effect on elongation of the latent period ([3]; 1000 mg/kg, day 9, p<0.05, Dunnet test): significant suppressing effects
- effect on latent period ([3]; groups receiving 500 mg/kg or 1000 mg/kg in advance of paclitaxel): suppressing tendency as a whole
- effect on paclitaxel-induced abnormal thermoesthesia ([3]; overall conclusion of Example 1): mitigates effectively
